Measured values as given in patent publication US20050130983A1, “Pyrrolopyrimidinone derivatives, process for preparation thereof, and method of using and composition comprising them” (priority 2002, published 2005).

With `CCCOc1ccc(S(=O)(=O)N2CCN(CCOC(C)=O)CC2)cc1-c1nc2c(CCCF)cn(CC)c2c(=O)[nH]1` [Example 19, 2-{5-[4-(2-Acetoxyethyl)piperazin-1-ylsulfonyl]-2-n-propoxyphenyl}-5-ethyl-7-(3-fluoropropyl)-3,5-dihydro-4H-pyrrolo[3,2-d]pyrimidin-4-one] the melting point was 134 to 135 °C.
Work on `CCCOc1ccc(S(=O)(=O)N2CCN(CCOC(C)=O)CC2)cc1-c1nc2c(CCC)cn(CC)c2c(=O)[nH]1` [Example 7, 2-{5-[4-(2-Acetoxyethyl)piperazin-1-ylsulfonyl]-2-n-propoxyphenyl}-5-ethyl-7-n-propyl-3,5-dihydro-4H-pyrrolo[3,2-d]pyrimidin-4-one] yielded a melting point of 139 to 140 °C.
For `CCCOc1ccc(S(=O)(=O)N2CCN(CCOC(=O)CCC)CC2)cc1-c1nc2c(CCC)cn(CC)c2c(=O)[nH]1` [Example 12, 2-{5-[4-(2-Butyryloxyethyl)piperazin-1-ylsulfonyl]-2-n-propoxyphenyl}-5-ethyl-7-n-propyl-3,5-dihydro-4H-pyrrolo[3,2-d]pyrimidin-4-one], the melting point was 71.5 to 73 °C.
`CCCOc1ccc(S(=O)(=O)N2CCN(CCOC(=O)OCC)CC2)cc1-c1nc2c(CCC)cn(CC)c2c(=O)[nH]1` [Example 17, 2-{5-[4-(2-Ethoxycarbonyloxyethyl)piperazin-1-ylsulfonyl]-2-n-propoxyphenyl}-5-ethyl-7-n-propyl-3,5-dihydro-4H-pyrrolo[3,2-d]pyrimidin-4-one] showed a melting point of 135 to 136 °C.
Compound `CCCOc1ccc(S(=O)(=O)N2CCN(CCOC(=O)c3ccccc3)CC2)cc1-c1nc2c(CCC)cn(CC)c2c(=O)[nH]1` [Example 16, 2-{5-[4-(2-Benzoyloxyethyl)piperazin-1-ylsulfonyl]-2-n-propoxyphenyl}-5-ethyl-7-n-propyl-3,5-dihydro-4H-pyrrolo[3,2-d]pyrimidin-4-one] has a melting point of 78 to 79 °C.
Compound `CCCOc1ccc(S(=O)(=O)N2CCN(CCOC(=O)CC)CC2)cc1-c1nc2c(CCC)cn(CC)c2c(=O)[nH]1` [Example 10, 5-Ethyl-2-{5-[4-(2-propionyloxyethyl)piperazin-1-ylsulfonyl]-2-n-propoxyphenyl}-7-n-propyl-3,5-dihydro-4H-pyrrolo[3,2-d]pyrimidin-4-one] has a melting point of 126.5 to 127.5 °C.
In the case of `CCCOc1ccc(S(=O)(=O)N2CCN(CCOC(=O)C(C)C)CC2)cc1-c1nc2c(CCC)cn(CC)c2c(=O)[nH]1` [Example 14, 5-Ethyl-2-{5-[4-(2-isobutyryloxyethyl)piperazin-1-ylsulfonyl]-2-n-propoxyphenyl}-7-n-propyl-3,5-dihydro-4H-pyrrolo[3,2-d]pyrimidin-4-one], the melting point is reported as 88 to 89 °C.
In the case of `CCCc1cn(C)c2c(=O)[nH]c(-c3cc(S(=O)(=O)N4CCN(CCCOC(C)=O)CC4)ccc3OCC)nc12` [Example 6, 2-{5-[4-(3-Acetoxypropyl)piperazin-1-ylsulfonyl]-2-ethoxyphenyl}-5-methyl-7-n-propyl-3,5-dihydro-4H-pyrrolo[3,2-d]pyrimidin-4-one], the melting point is reported as 157 to 158.5 °C.
